Measured values reported in patent US20210244712A1, “METHODS FOR TREATING PATIENTS WITH CANCER HAVING DEFECTS IN CYCLIN D REGULATION” (NysnoBio Ireland DAC, priority 2018, published 2021).
Like-named read-outs stand apart in the source and are kept apart here.

Columns and labels:
Assay type in all cases: cell-based
HCT 116 = experiment: Cell proliferation assay; details: Homo sapiens, Table 7b, HCT-116, read-out: Cell Proliferation Assay (EC50)
Procedure: (§1) Measurement of the inhibitive effect of compounds on cancer cell proliferation was performed. The assays were performed under the following conditions: Cells are harvested at a concentration of 4×10^4 cells/ml in media. Volumes of 100 μL/well of these cell suspensions were added to a 96 well plate using a multichannel pipette. Plates were gently agitated to ensure an even dispersion of cells over a given plate. Cells were then incubated at 37° C., 5% CO2 overnight. Following this, 100 μL of compound at varying concentrations was added to wells in triplicate. Control wells are those with 100 μL media containing 0.33% DMSO added to cell suspension (this is the equivalent volume of DMSO found in the highest concentration of drug). Plates were then gently agitated, as above, and incubated at 37° C., 5% CO2 for 72 hrs (control wells have reached 80-90% confluency). Assessment of cell proliferation in the presence of Compounds C and F was determined by the acid phosphatase assay.
(§2) Following the incubation period of 72 hrs, media was removed from the plates. Each well on the plate was washed twice with 100 μL PBS. This was then removed and 100 μL of freshly prepared phosphatase substrate (10 mM p-nitrophenol phosphate in 0.1M sodium acetate, 0.1% triton X-100, pH 5.5) was added to each well. The plates were then incubated in the dark at 37° C. for 2 hours. Color development was monitored during this time. The enzymatic reaction was stopped by the addition of 50 μL of 1N NaOH. The plate was read in a dual beam plate reader at 405 nm with a reference wavelength of 620 nm. The absorbance reading of the latter is subtracted from the former, and the effect of the drug on cell proliferation was then measured as a percentage against the control cells (DMSO), which is taken as 0% inhibition.

TOV-112D = experiment: Cell proliferation assay; details: Homo sapiens, TOV112D, Table 7b, TOV-112D, read-out: Cell Proliferation Assay (EC50)
Procedure: as §1, §2

cyclin D1 = experiment: Western blot of Cyclin D1, Example 6B; details: 250 nM, 24 h, compared to control (DMSO)
Procedure: Cells were plated at a density of 3×10^5 cells/well for 24 hrs. Representative compounds or DMSO alone was then added to the wells for 24 h at 250 nM (note: Compound F was administered at a concentration of 2 μM). Cells were trypsinised, pelleted, washed ×3 in PBS, and lysed using a 2% SDS lysis solution (Sigma—05030).
Western blot analysis was then carried out to look at Cyclin D1 (Abeam—ab134175), PRK8 (Sigma—P6248), Rb (Abeam—[…]) and GAPDH (Sigma—G9545) levels.

EC50 (HCT 116; cells printed in nM) [nM]	EC50 (HCT 116; cells printed in μM) [nM]	Compound	EC50 (TOV-112D; cells printed in nM) [nM]	Cyclin D1 expression (cyclin D1; HCT-116)	Cyclin D1 expression (cyclin D1; TOV-112)	EC50 (TOV-112D; cells printed in μM) [nM]
412	–	Cc1ccccc1C(=O)Nc1nc(NC(=O)c2ccc(CNC(=O)[C@@H]3CCCN3)cc2)nn1-c1ccc(OC(F)(F)F)cc1 [Compound 16x, (S)—N-(4-((5-(2-methylbenzamido)-1-(4-(trifluoromethoxy)phenyl)-1H-1,2,4-triazol-3-yl)carbamoyl)benzyl)pyrrolidine-2-carboxamide]	659	–	–	–
755	–	Cc1ccccc1C(=O)Nc1nc(NC(=O)c2ccc(CNC(C)C)cc2)nn1-c1ccc(OC(F)(F)F)cc1 [Compound 12x, N-(3-(4-((isopropylamino)methyl)benzamido)-1-(4-(trifluoromethoxy)phenyl)-1H-1,2,4-triazol-5-yl)-2-methylbenzamide]	183	–	–	–
295	–	CCCCCCC(=O)NCc1ccc(C(=O)Nc2nc(-c3ncccc3C)nn2-c2cccc(F)c2)cc1 [Compound 4x, N-(1-(3-fluorophenyl)-3-(3-methylpyridin-2-yl)-1H-1,2,4-triazol-5-yl)-4-(heptanamidomethyl)benzamide]	227	–	–	–
972	–	Cc1ccccc1C(=O)Nc1nc(NC(=O)c2ccc(CN)cc2)nn1-c1ccc(OC(F)(F)F)cc1 [Compound 1x, N-(3-(4-(aminomethyl)benzamido)-1-(4-(trifluoromethoxy)phenyl)-1H-1,2,4-triazol-5-yl)-2-methylbenzamide]	350	–	–	–
406	–	Cc1ccccc1C(=O)Nc1nc(-c2ccccc2O)nn1-c1ccc(N2CCNCC2)cc1 [Compound 7x, N-(3-(2-hydroxyphenyl)-1-(4-(piperazin-1-yl)phenyl)-1H-1,2,4-triazol-5-yl)-2-methylbenzamide]	285	reduction of Cyclin D1 expression	reduction of Cyclin D1 expression	–
246	–	CCCCCCC(=O)N1CCN(c2ccc(-n3nc(-c4ccccc4O)nc3NC(=O)c3ccccc3C)cc2)CC1 [Compound 8x, N-(1-(4-(4-heptanoylpiperazin-1-yl)phenyl)-3-(2-hydroxyphenyl)-1H-1,2,4-triazol-5-yl)-2-methylbenzamide]	124	–	–	–
–	1000	Cc1ccccc1C(=O)Nc1nc(NC(=O)c2cccc(CN3CCN(C)CC3)c2)nn1-c1ccc(OC(F)(F)F)cc1 [Compound 15x, 2-methyl-N-(3-(3-((4-methylpiperazin-1-yl)methyl)benzamido)-1-(4-(trifluoromethoxy)phenyl)-1H-1,2,4-triazol-5-yl)benzamide]	–	–	–	3000
133	–	Cc1cccnc1-c1nc(NC(=O)c2ccc(CN)cc2)n(-c2ccc(OC(F)(F)F)cc2)n1 [Compound 5x, 4-(aminomethyl)-N-(3-(3-methylpyridin-2-yl)-1-(4-(trifluoromethoxy)phenyl)-1H-1,2,4-triazol-5-yl)benzamide]	114	reduction of Cyclin D1 expression	reduction of Cyclin D1 expression	–
–	3000	Cc1ccccc1C(=O)Nc1nc(NC(=O)c2ccc(CN)cc2)n(-c2ccc(OC(F)(F)F)cc2)n1 [Compound 2x]	–	–	–	4000
426	–	Cc1ccccc1C(=O)Nc1nc(NC(=O)c2cccc(CNC(C)C)c2)nn1-c1ccc(OC(F)(F)F)cc1 [Compound 13x, N-(3-(3-((isopropylamino)methyl)benzamido)-1-(4-(trifluoromethoxy)phenyl)-1H-1,2,4-triazol-5-yl)-2-methylbenzamide]	231	reduction of Cyclin D1 expression	reduction of Cyclin D1 expression	–
929	–	Cc1ccccc1C(=O)Nc1nc(NC(=O)c2cccc(CN3CCOCC3)c2)nn1-c1ccc(OC(F)(F)F)cc1 [Compound 11x, 2-methyl-N-(3-(3-(morpholinomethyl)benzamido)-1-(4-(trifluoromethoxy)phenyl)-1H-1,2,4-triazol-5-yl)benzamide]	774	reduction of Cyclin D1 expression	reduction of Cyclin D1 expression	–
108	–	NCc1ccc(C(=O)Nc2nc(-c3ccccc3O)nn2-c2ccc(OC(F)(F)F)cc2)cc1 [Compound 10x, 4-(aminomethyl)-N-(3-(2-hydroxyphenyl)-1-(4-(trifluoromethoxy)phenyl)-1H-1,2,4-triazol-5-yl)benzamide]	71	reduction of Cyclin D1 expression	reduction of Cyclin D1 expression	–
484	–	CCCCCCC(=O)NCc1ccc(C(=O)Nc2nc(-c3ncccc3C)nn2-c2ccc(OC(F)(F)F)cc2)cc1 [Compound 3x, 4-(heptanamidomethyl)-N-(3-(3-methylpyridin-2-yl)-1-(4-(trifluoromethoxy)phenyl)-1H-1,2,4-triazol-5-yl)benzamide]	349	–	–	–
412	–	Cc1ccccc1C(=O)Nc1nc(NC(=O)c2ccc(CN3CCN(C)CC3)cc2)nn1-c1ccc(OC(F)(F)F)cc1 [Compound 14x, 2-methyl-N-(3-(4-((4-methylpiperazin-1-yl)methyl)benzamido)-1-(4-(trifluoromethoxy)phenyl)-1H-1,2,4-triazol-5-yl)benzamide]	655	reduction of Cyclin D1 expression	reduction of Cyclin D1 expression	–
121	–	CCCCCCC(=O)NCc1ccc(C(=O)Nc2nc(-c3ccccc3O)nn2-c2ccc(OC(F)(F)F)cc2)cc1 [Compound 9x, 4-(heptanamidomethyl)-N-(3-(2-hydroxyphenyl)-1-(4-(trifluoromethoxy)phenyl)-1H-1,2,4-triazol-5-yl)benzamide]	82	–	–	–
–	2000	Cc1cccnc1-c1nc(NC(=O)c2ccc(CN)cc2)n(-c2cccc(F)c2)n1 [Compound 6x, 4-(aminomethyl)-N-(1-(3-fluorophenyl)-3-(3-methylpyridin-2-yl)-1H-1,2,4-triazol-5-yl)benzamide]	–	reduction of Cyclin D1 expression	reduction of Cyclin D1 expression	2000
